Assays:
[1] = tested on: FXR signaling (Shp) in intestinal organoids; assay: FXR target gene expression in intestinal organoids; type: cell-based, mouse; conditions: DC646 50 μmol/L, GW4064 10 μmol/L, 24 h
Description: Intestinal crypts were isolated from 6- to 8-week-old C57BL/6 mice and Fxr^△IE mice as previously described with minor revision. Briefly, the abdomen of the mouse was dissected, and the small intestine was isolated with fats removed. The isolated intestine was flushed with cold PBS to remove the luminal contents. Then, the intestine was opened longitudinally and washed three times with PBS gently. The tissue was cut into small fragments (2 mm^2) and further washed three times with cold PBS gently, followed by incubation with 5 mmol/L EDTA-PBS at 4°C. After 40 min, the fragments were vortexed vigorously, and then the suspension was filtered through a […] and centrifuged at 50 g for 10 min. The crypts were counted and plated with Matrigel (1:1, 25 μL) and 500 μL IntestiCult Organoid Growth Medium with Supplements 1 and 2. The isolated crypts were cultured for 3–5 days and treated with indicated chemicals as described.
The intestine and liver were frozen in liquid nitrogen and stored at −80°C. RNA was extracted, and complementary DNA was synthesized from 1 μg total RNA. RT-qPCR was performed on a Bio-Rad CFX384 Touch detection system (Bio-Rad). The primer sequences for RT-qPCR are shown in Supplementary Table S5. RNA levels were analyzed by 2-^ΔΔCt, normalized to 18S ribosomal RNA and expressed as fold change relative to the control group. […]

[2] = tested on: MCD diet-induced MASH; assay: MCD diet short-term MASH model in WT and Fxr-null mice; type: in vivo, mouse; conditions: oral 10 mg/kg, 2 weeks
Protocol: For the short-term MASH model, 8- to 10-week-old male C57BL/6 J or Fxr-null mice were fed with an MCD diet, combined with oral administration of vehicle or DC646 (10 mg/kg) for 2 weeks. The serum, liver, and intestine were collected 2 h after the final dosing.
The intestine and liver were frozen in liquid nitrogen and stored at −80°C. RNA was extracted, and complementary DNA was synthesized from 1 μg total RNA. RT-qPCR was performed on a Bio-Rad CFX384 Touch detection system (Bio-Rad). The primer sequences for RT-qPCR are shown in Supplementary Table S5. RNA levels were analyzed by 2-^ΔΔCt, normalized to 18S ribosomal RNA and expressed as fold change relative to the control group.
(§1) Hepatic TG and TC, and plasma ALT and AST levels were measured using commercial kits from Nanjing Jiancheng Bioengineering Institute according to the manufacturer’s instructions. To measure hepatic TG contents, liver tissues (~10 mg) were homogenized in 100 μL 1% TritonX-100 and centrifuged at 3000 rpm for 10 min. Supernatants were collected, and 2 μL samples were incubated with 200 μL reaction buffer at 37°C for 10 min. Hepatic TG or TC levels were read at 510 or 500 nm using a microplate reader (Versamax, Molecular Devices) and normalized using the protein concentration. […] The data were acquired using the kinetic mode with an interval of 30 s and 31 total reads at 340 nm using a microplate reader (Versamax, Molecular Devices).
Tissue specimens were fixed in 10% formalin for 12–24 h before being dehydrated and paraffin-embedded. The sections were stained with H&E. The NAS was calculated as a summary score including individual components of steatosis (0–3), lobular inflammation (0–3), and hepatocyte ballooning (0–2) for each liver section by a blinded liver pathologist, and the results were reviewed by a blinded hepatologist according to a previous protocol. […] At least three discontinuous liver sections were evaluated for each mouse.

[3] = tested on: GAN diet-induced MASH in Fxr^△IE mice; assay: GAN diet-fed Fxr^△IE mice; type: in vivo, mouse; conditions: GAN diet 20 weeks, oral 10 mg/kg daily for 8 weeks
Protocol: For the long-term MASH model, 8- to 10-week-old male C57BL/6 J mice were fed with an MCS diet or MCD diet for 2 weeks, before the MCD models were administered with vehicle or GUDCA (50 mg/kg), OCA (30 mg/kg), and DC646 (10 mg/kg) for 4 weeks. The serum, liver, and intestine were collected 2 h after the final dosing. Male Fxr^△IE mice (8–10 weeks old) were fed with a GAN diet for 20 weeks and administered with vehicle or DC646 (10 mg/kg) from the 12th week for 8 weeks. The serum, liver, and intestine were collected 2 h after the final dosing.
as §1, with “Supernatants were collected, and 2 μL samples were incubated with 200 μL reaction buffer at 37°C for 10 min.” left out
Tissue specimens were fixed in 10% formalin for 12–24 h before being dehydrated and paraffin-embedded. […] At least three discontinuous liver sections were evaluated for each mouse.

[4] = molecular target: T1, PPARα (Homo sapiens, UniProt Q07869); assay: PPARα cell-based reporter assay; conditions: 10 μmol/L; inhibition of agonist-induced receptor activation
T1 sequence (Q07869 1-468): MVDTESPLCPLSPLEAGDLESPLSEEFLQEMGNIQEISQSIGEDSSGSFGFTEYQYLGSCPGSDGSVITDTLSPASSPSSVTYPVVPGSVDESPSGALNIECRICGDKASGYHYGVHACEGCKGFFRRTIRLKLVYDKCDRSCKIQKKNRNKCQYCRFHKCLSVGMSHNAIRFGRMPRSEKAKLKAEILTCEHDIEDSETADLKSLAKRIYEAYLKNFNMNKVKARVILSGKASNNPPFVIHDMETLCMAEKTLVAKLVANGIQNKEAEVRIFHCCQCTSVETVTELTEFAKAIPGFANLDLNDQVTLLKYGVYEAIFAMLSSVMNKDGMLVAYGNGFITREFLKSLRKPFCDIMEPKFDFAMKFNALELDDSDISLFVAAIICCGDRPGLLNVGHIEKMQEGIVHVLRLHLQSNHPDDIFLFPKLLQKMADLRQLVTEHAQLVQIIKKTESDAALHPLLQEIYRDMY
Description: Inhibition% means inhibition percentage of agonist-induced receptor activation.

With `CC(C)C[C@@H]1NC(=O)[C@@H]2CN(CCO2)c2cccc3c2c(cn3[Si](C(C)C)(C(C)C)C(C)C)C[C@H](NS(=O)(=O)C(F)(F)F)C(=O)OCCCCNC(=O)[C@H](CC(C)C)NC(=O)[C@@H]2CN(CCO2)c2cccc3c2c(cn3[Si](C(C)C)(C(C)C)C(C)C)C[C@H](NS(=O)(=O)C(F)(F)F)C(=O)OCCCCNC1=O` [DC646, N,N'-((1^2R,1^4S,16^2R,16^4S,4R,13R,19R,28R)-13,28-diisobutyl-5,12,15,20,27,30-hexaoxo-2^1,17^1-bis(triisopropylsilyl)-2^1H,17^1H-6,21-dioxa-11,14,26,29-tetraaza-1(4,2),16(2,4)-dimorpholina-2,17(4,3)-diindolacyclotriacontaphane-4,19-diyl)bis(1,1,1-trifluoromethanesulfonamide)] the “mRNA expression of GW4064-induced FXR target gene Shp” value ([1]; Fxr^△IE organoids) was “not observed”, the “mRNA expression of GW4064-induced FXR target gene Shp” value ([1]; WT organoids) was “effectively reversed” and the “Decrease in ALT and antisteatotic effect” value ([2]; Fxr-null mice) was “abolished”. The “NAS score, steatosis” value ([2]; WT mice) was “effectively reduced steatosis”, the “mRNA levels of intestinal FXR target genes Shp and Fgf15” value ([2]; WT mice) was “significantly downregulated” and the “Liver/body weight ratio, serum ALT, serum AST, liver TG, liver TC and NAS score” value [3] was “did not reduce”. The “mRNA levels of genes in the intestinal FXR signaling” value [3] was “no difference” and the inhibition at 10 µM [4] was -1.3%.
